Assay results: ChEMBL document CHEMBL1126441, “A novel and selective class of azabicyclic muscarinic agonists incorporating an N-methoxy imidoyl halide or nitrile functionality” (Bioorg Med Chem Lett, 1992)

What was measured:
[1] = target: Muscarinic acetylcholine receptor (Rattus norvegicus) (UniProt P08482+P08483+P08485+P08911+P10980); assay: Relative affinities compared to oxotremorine-M (OXO-M) and [3H]quinuclidinyl benzilate (QNB) for muscarinic receptors; assay type: protein assay
[2] = target: Muscarinic acetylcholine receptor; assay: In vitro inhibition of oxotremorine-M (OXO-M) binding to muscarinic receptors of rat cerebral cortex; assay type: tissue-based
[3] = target: Muscarinic acetylcholine receptor; assay: In vitro inhibition of [3H]quinuclidinyl benzilate (QNB) binding to muscarinic receptors of rat cerebral cortex; assay type: tissue-based
[4] = Partition coefficient (logP); assay type: physicochemical; settings: octanol/water
[5] = Compound was evaluated for its dissociation constant.; assay type: ADME
[6] = system: Rattus norvegicus; assay: The effective dose required to produce a change in the mean power spectrum of the EEG equivalent to that of a standard dose (0.32 mg/kg) of arecoline on iv administration; assay type: functional
[7] = Ratio of 50% fall in mean blood pressure (BP) to rhythmical slow wave activity (RSA) was determined; assay type: functional
[8] = LogD value represents the distribution coefficient at pH 7.3.; assay type: physicochemical; settings: octanol/water
[9] = system: Rattus norvegicus; assay: Effective dose required to cause 50% fall in mean blood pressure (BP) by the compound on iv administration; assay type: functional

SMILES: CO/N=C(\Cl)[C@H]1CN2CC[C@H]1C2
- Ratio [1]: 47
- IC50 [2]: 64 nM
- IC50 [3]: 3000 nM

SMILES: CO/N=C(\C)C12CCCN(CC1)C2 (centres undefined)
- logP [4]: 1.65
- pKa [5]: 10.1
- ED Arec [6]: 0.068 mg/kg
- Ratio [7]: 1
- logD [8]: -1.13
- ED50 [9]: 0.068 mg/kg

SMILES: CO/N=C(\F)C12CCCN(CC1)C2 (centres undefined)
- logP [4]: 1.01
- Ratio [1]: 56
- pKa [5]: 9.06
- ED Arec [6]: 0.012 mg/kg
- Ratio [7]: 2.5
- logD [8]: -0.76
- IC50 [2]: 43 nM
- ED50 [9]: 0.03 mg/kg
- IC50 [3]: 2400 nM

SMILES: CO/N=C(\F)C12CCN(CC1)C2
- Ratio [1]: 352
- IC50 [2]: 44 nM
- IC50 [3]: 15500 nM

SMILES: CO/N=C(\C#N)[C@H]1CN2CCC1C2 (some centres undefined)
- IC50 [2]: 23 nM
- IC50 [3]: 2300 nM

SMILES: CO/N=C(\Cl)C12CCN(CC1)C2
- Ratio [1]: 167
- IC50 [2]: 51 nM
- IC50 [3]: 8500 nM

SMILES: CO/N=C(\Cl)C12CCCN(CC1)C2 (centres undefined)
- logP [4]: 2.12
- Ratio [1]: 42
- pKa [5]: 9.24
- ED Arec [6]: 0.029 mg/kg
- Ratio [7]: 11
- logD [8]: 0.18
- IC50 [2]: 72 nM
- ED50 [9]: 0.32 mg/kg
- IC50 [3]: 3000 nM

SMILES: CO/N=C(\C#N)C12CCN(CC1)C2
- Ratio [1]: 103
- IC50 [2]: 19 nM
- IC50 [3]: 1950 nM

SMILES: CO/N=C(\C#N)C12CCCN(CC1)C2 (centres undefined)
- logP [4]: 1.49
- pKa [5]: 8.96
- ED Arec [6]: 0.005 mg/kg
- Ratio [7]: 4
- logD [8]: -0.18
- IC50 [2]: 11 nM
- ED50 [9]: 0.02 mg/kg
- IC50 [3]: 220 nM

SMILES: CO/N=C(\C#N)C1CN2CCC1CC2 (centres undefined)
- logP [4]: 1.56
- Ratio [1]: 14
- pKa [5]: 8.96
- ED Arec [6]: 0.052 mg/kg
- Ratio [7]: >10.8
- logD [8]: -0.11
- IC50 [2]: 33 nM
- ED50 [9]: > 0.56 mg/kg
- IC50 [3]: 470 nM

SMILES: CO/N=C(\Br)[C@H]1CN2CC[C@H]1C2
- Ratio [1]: 51
- IC50 [2]: 59 nM
- IC50 [3]: 3000 nM

SMILES: CO/N=C(\C)C1CN2CCC1CC2 (centres undefined)
- logP [4]: 1.88
- pKa [5]: 10.3
- ED Arec [6]: 0.31 mg/kg
- Ratio [7]: >0.35
- logD [8]: -1.09
- ED50 [9]: > 0.1 mg/kg

SMILES: CO/N=C(\Br)C12CCN(CC1)C2
- Ratio [1]: 51
- IC50 [2]: 160 nM
- IC50 [3]: 8100 nM

SMILES: CO/N=C(\Br)C12CCCN(CC1)C2 (centres undefined)
- Ratio [1]: 12
- IC50 [2]: 190 nM
- IC50 [3]: 2300 nM

SMILES: CO/N=C(\F)[C@H]1CN2CC[C@H]1C2
- Ratio [1]: 344
- IC50 [2]: 9 nM
- IC50 [3]: 3100 nM

SMILES: CO/N=C(\Cl)C1CN2CCC1CC2 (centres undefined)
- Ratio [1]: 16
- IC50 [2]: 69 nM
- IC50 [3]: 1100 nM

SMILES: CO/N=C(\F)C1CN2CCC1CC2 (centres undefined)
- Ratio [1]: 65
- IC50 [2]: 34 nM
- IC50 [3]: 2000 nM
